Test results taken from patent US12351571B2, “Substituted quinoxaline compounds as inhibitors of FGFR tyrosine kinases” (ARRAY BIOPHARMA INC., priority 2018, dated 2025).

What was measured:
[1] = target: dephosphorylated FGFR1 (Homo sapiens (Human), UniProt P11362); experiment: FGFR Enzyme Binding Assay (HTRF tracer displacement), FGFR1; details: 5 nM dephosphorylated FGFR1, 60 minute incubation at 22° C.; read-out: FGFR1 Enz Binding IC50
Description: The potency of compounds inhibiting human isoforms of FGFR kinase was determined using Life Technologies' Homogeneous Time Resolved Fluorescence (HTRF)-based binding assay technology. An incubation was conducted with either 5 nM dephosphorylated FGFR1 (Array Biopharma, p1702; SEQ ID NO: 1, amino acids 458 to 765, dephosphorylated by co-expression with PTP1b (protein tyrosine phosphatase 1B)), 5 nM dephosphorylated FGFR2 (Life Technologies, Cat. No. PV4106 that had been dephosphorylated with Lambda protein phosphatase (New England Biolabs, cat #P0753)) or 5 nM phosphorylated FGFR3 (Array Biopharma, p1836; SEQ ID NO: 5, amino acids 449 to 759), 50 nM Kinase Tracer 236 (Life Technologies Cat. No. PR9078A), 2 nM Biotin-anti-6HIS (Life Technologies Cat. No. PV6090) and 2 nM Europium-Streptavidin (Life Technologies Cat. No. PV6025) along with test compound in a buffer consisting of 50 mM HEPES ((4-(2-hydroxyethyl)-1-piperazineethanesulfonic acid, pH 7.5), 5 mM MgCl2, 0.005% Triton X-100, 1 mM DTT, 1 mM NaVO4 and 2% DMSO in a final volume of 12 μL Compounds were typically prepared as a 3-fold or 4-fold serial dilution in DMSO and added to the assay to give the appropriate final concentration. After a 60 minute incubation at 22° C., the extent of tracer displacement was determined using a PerkinElmer EnVision multimode plate reader via HTRF dual wavelength detection, and the percent of control (POC) was calculated using a ratiometric emission factor. One hundred POC was determined using no test compound, and 0 POC was determined in the presence of 1 μM of an appropriate control inhibitor. A 4-parameter logistic curve was fit to the POC values as a function of the concentration of compound, and the IC50 value was the point where the best-fit curve crossed 50 POC.

[2] = target: recombinant human FGFR2 cytoplasmic domain (Homo sapiens (Human), UniProt P21802); experiment: FGFR Enzyme Activity Assay (LanthaScreen TR-FRET), FGFR2; assay type: biochemical; details: 15 μM ATP, 20 minute incubation; read-out: FGFR2 Enz FRET IC50
Sequence of recombinant human FGFR2 cytoplasmic domain (P21802 402-821): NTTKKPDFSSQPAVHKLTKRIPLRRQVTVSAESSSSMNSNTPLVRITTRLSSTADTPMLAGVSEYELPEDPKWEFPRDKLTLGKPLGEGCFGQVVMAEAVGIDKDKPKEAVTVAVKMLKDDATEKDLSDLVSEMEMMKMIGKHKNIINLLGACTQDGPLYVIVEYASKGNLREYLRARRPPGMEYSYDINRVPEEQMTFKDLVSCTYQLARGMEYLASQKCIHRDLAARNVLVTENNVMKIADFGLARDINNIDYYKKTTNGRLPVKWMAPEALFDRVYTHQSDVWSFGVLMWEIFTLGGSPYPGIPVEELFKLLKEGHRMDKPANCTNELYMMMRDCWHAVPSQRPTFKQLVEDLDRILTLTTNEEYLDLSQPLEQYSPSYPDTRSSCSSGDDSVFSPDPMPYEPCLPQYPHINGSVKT
Description: FGFR2 kinase activity was measured by the Invitrogen LanthaScreen™ Assay technology which directly measures the amount of substrate phosphorylation by TR-FRET using a flourescently-labeled peptide and Europium-labeled antibody. Briefly, 200 pM His-tagged recombinant human FGFR2 cytoplasmic domain (amino acids 403-822) (Life Technologies Cat. No. PR5332A) was incubated with 100 nM Alexa Fluor® 647-Poly-GT Peptide Substrate (Life Technologies Cat. No. PV5836) and 15 μM ATP along with test compound in a buffer consisting of 250 mM HEPES, 25 mM MgCl2, 0.05% TritonX-100, pH 7.5, and 2% DMSO. Compounds were typically prepared in a threefold serial dilution in DMSO and added to the assay to give the appropriate final concentration. After a 20 minute incubation at 22° C., an equal volume of 2 nM LanthaScreen® Eu-PY20 Antibody (Life Technologies Cat. No. PV5691) and 10 mM EDTA were added to quench the kinase reaction and start the detection reaction. After an additional 60 minute incubation at 22° C., the reaction was measured using a PerkinElmer EnVision multimode plate reader via TR-FRET dual wavelength detection, and the percent of control (POC) calculated using a ratiometric emission factor. 100 POC was determined using no test compounds and 0 POC was determined using no enzyme. The POC values were fit to a 4-parameter logistic curve as a function of the concentration of the compound, and the IC50 value is the point where the curve crosses 50 POC.

[3] = target: FGFR1 (Homo sapiens (Human), UniProt P11362); experiment: LC/MS FGFR1 kobs assay (covalent modification); assay type: biochemical; details: 500 nM FGFR1, 3 μM compound
Sequence of FGFR1 (P11362 458-765): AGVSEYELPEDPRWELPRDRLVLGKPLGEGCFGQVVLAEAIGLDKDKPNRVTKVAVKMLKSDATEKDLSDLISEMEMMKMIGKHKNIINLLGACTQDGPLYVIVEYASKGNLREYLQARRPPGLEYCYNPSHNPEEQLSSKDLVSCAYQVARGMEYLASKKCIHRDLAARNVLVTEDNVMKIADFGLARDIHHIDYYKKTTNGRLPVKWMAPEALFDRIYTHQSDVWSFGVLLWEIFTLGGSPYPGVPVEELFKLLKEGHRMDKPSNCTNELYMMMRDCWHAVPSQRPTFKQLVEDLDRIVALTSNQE
Description: The LC/MS FGFR1 and FGFR3 kobs assays were conducted as follows. 500 nM FGFR1 (Array BioPharma construct p1702; SEQ ID NO: 1, amino acids 458-765) or FGFR3 (Array BioPharma construct p1700; SEQ ID NO: 5, amino acids 449-759) were incubated with 3 μM compound in 25 mM HEPES (4-(2-hydroxyethyl)-1-piperazineethanesulfonic acid), pH 7.4, 5 mM MgCl2, 150 mM NaCl, 0.5 mM TCEP (tris(2-carboxyethyl) phosphine), and 2% DMSO in a total volume of 20 μL. At each time point, the reaction was quenched with 20 μL of 0.4% formic acid. The extent of protein modification by each compound was determined by LC/MS on an Agilent Technologies 6520 Q-TOF LC/MS. Protein signals were then automatically deconvoluted using Agilent Masshunter software. Deconvoluted mass signals were exported to Tibco Spotfire data analysis program for further processing and normalization.
Data analysis included five steps. First, the signals for the “DMSO Controls” were analyzed to determine the percent of signal associated with unmodified FGFR1 or FGFR3 at each time point. Next, the percent of the signal associated with the covalent modification was determined. Third, the average nonmodified “DMSO Control” signal was used to normalize the modified protein signals at each time point. The percent of unmodified protein was fit to an exponential decay model where A0 is the Percent Unmodified at the start of the reaction, and kobs is the observed rate constant over the time period.

[4] = target: human wild type FGFR1 (Homo sapiens (Human), UniProt P11362); experiment: FGFR1 pERK Cell Assay; assay type: cell-based; details: HEK-293 cells, 1 hour compound, 100 ng/ml human FGF-acidic; maximum concentration 5 μM
Sequence of human wild type FGFR1 (P11362 22-822): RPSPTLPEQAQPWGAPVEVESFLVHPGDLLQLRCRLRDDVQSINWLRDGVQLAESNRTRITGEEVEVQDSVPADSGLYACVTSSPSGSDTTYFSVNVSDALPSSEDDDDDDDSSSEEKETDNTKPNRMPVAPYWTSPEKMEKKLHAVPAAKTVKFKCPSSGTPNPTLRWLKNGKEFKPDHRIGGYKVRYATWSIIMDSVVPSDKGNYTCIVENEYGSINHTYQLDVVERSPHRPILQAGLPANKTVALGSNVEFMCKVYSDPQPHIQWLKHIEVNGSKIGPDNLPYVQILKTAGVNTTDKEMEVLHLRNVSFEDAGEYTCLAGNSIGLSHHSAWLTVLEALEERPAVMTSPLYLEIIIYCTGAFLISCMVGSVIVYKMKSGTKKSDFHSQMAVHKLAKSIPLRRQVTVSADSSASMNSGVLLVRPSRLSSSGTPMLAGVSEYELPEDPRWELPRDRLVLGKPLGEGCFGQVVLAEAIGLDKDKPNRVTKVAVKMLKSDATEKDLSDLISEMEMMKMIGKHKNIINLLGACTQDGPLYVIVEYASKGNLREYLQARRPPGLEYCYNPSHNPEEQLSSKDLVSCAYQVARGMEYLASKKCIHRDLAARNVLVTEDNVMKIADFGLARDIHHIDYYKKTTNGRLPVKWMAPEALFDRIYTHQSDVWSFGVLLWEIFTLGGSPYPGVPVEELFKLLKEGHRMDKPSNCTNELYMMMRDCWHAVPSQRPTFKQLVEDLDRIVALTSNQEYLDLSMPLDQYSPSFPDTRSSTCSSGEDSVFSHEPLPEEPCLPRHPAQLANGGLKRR
Description: HEK-293 cells transfected with doxycycline(dox)-inducible human wild type FGFR1 (SEQ ID NO: 1) were plated in a collagen or poly-D-lysine coated 96 well flat bottom plates at 4×10^5 cells/well in complete Dulbecco's Modified Eagle Medium (DMEM) containing 10% FBS and 1 μg/ml doxycycline and allowed to attach for 24 h at 37° C., 5% CO2. Cells were treated with compound using 1:3 serial dilutions with a maximum final concentration of 5 μM. Compound was incubated on cells for 1 hour at 37° C., 5% CO2. Cells were then stimulated with a final concentration of 100 ng/ml human FGF-acidic (R&D Systems Cat number 232-FA/CF) for 5 minutes at 37° C., 5% CO2. Medium was removed, and cells were lysed with lysis buffer containing phosphatase and protease inhibitors. Phospho ERK1/2 was measured using the Meso Scale Discovery sandwich assay (Meso Scale Discovery cat. no. K151DWD). The assay captures phospho ERK1/2 and detects with a sulfo-tagged total ERK1/2 antibody. The chemiluminescent signal was read on the Sector Imager Plate reader. 100 POC was determined using no test compound and 0 POC was determined using a control compound. The POC values were fit to a 4-parameter logistic curve as a function of the concentration of the compound, and the IC50 value is the point where the curve crosses 50 POC.

Sequence of dephosphorylated FGFR1 (P11362 458-765): as the sequence (P11362 458-765) above

| SMILES | IC50 [1] | IC50 [2] | FGFR1 Enz kobs [3] | IC50 [4] |
| --- | --- | --- | --- | --- |
| C=CC(=O)N1CC(F)(C(=O)N2CCN(c3cc(C)c(-c4cnc5ccc(Nc6cc(OC)cc(OC)c6)cc5n4)cn3)CC2)C1 [Example 15, 1-(3-(4-(5-(7-((3,5-dimethoxyphenyl)amino)-quinoxalin-2-yl)-4-methylpyridin-2-yl)-piperazine-1-carbonyl)-3-fluoroazetidin-1-yl)prop-2-en-1-one] | 2.37 µM | 5 µM | 0.00154 min⁻¹ | ≥ 5 µM |
| C#CCN(c1cc(OC)cc(OC)c1)c1ccc2ncc(-c3cnn(C4CCN(C(=O)C5(F)CN(C(=O)/C=C/CN(C)C)C5)CC4)c3)nc2c1 [Example 28, (E)-1-(3-(4-(4-(7-((3,5-dimethoxyphenyl)(prop-2-yn-1-yl)amino)quinoxalin-2-yl)-1H-pyrazol-1-yl)piperidine-1-carbonyl)-3-fluoroazetidin-1-yl)-4-(dimethylamino)but-2-en-1-one] | 0.006 µM | 0.005 µM | 0.01569 min⁻¹ | 0.034 µM |
| C=CC(=O)N1CC(CN2CCC(n3cc(-c4cnc5ccc(Nc6cc(OC)cc(OC)c6)cc5n4)cn3)CC2)(OC)C1 [Example 29, 1-(3-((4-(4-(7-((3,5-dimethoxyphenyl)amino)quinoxalin-2-yl)-1H-pyrazol-1-yl)piperidin-1-yl)methyl)-3-methoxyazetidin-1-yl)prop-2-en-1-one] | 0.05 µM | 0.333 µM | 0.0025 min⁻¹ | 0.206 µM |
| COc1cc(Nc2ccc3ncc(-c4cnn(C5CCN(C(=O)C6(F)CN(C(=O)/C=C/CN(C)C)C6)CC5)c4)nc3c2)cc(OC)c1 [Example 10, (E)-1-(3-(4-(4-(7-((3,5-dimethoxyphenyl)amino)-quinoxalin-2-yl)-1H-pyrazol-1-yl)piperidine-1-carbonyl)-3-fluoro-azetidin-1-yl)-4-(dimethylamino)but-2-en-1-one] | 0.028 µM | 0.011 µM | 0.01569 min⁻¹ | 0.134 µM |
| C=CC(=O)N1CC(C(=O)N2CC[C@@H](n3cc(-c4cnc5ccc(Nc6cc(OC)cc(OC)c6)cc5n4)cn3)C2)C1 [Example 21, (R)-1-(3-(3-(4-(7-((3,5-dimethoxyphenyl)amino)-quinoxalin-2-yl)-1H-pyrazol-1-yl)pyrrolidine-1-carbonyl)azetidin-1-yl)prop-2-en-1-one] | 0.038 µM | 0.187 µM | 0.00106 min⁻¹ | 1.89 µM |
| COc1cc(Nc2ccc3ncc(-c4cnn(C5CCN(C(=O)C6(C#N)CN(C(=O)/C=C/CN(C)C)C6)CC5)c4)nc3c2)cc(OC)c1 [Example 11, (E)-3-(4-(4-(7-((3,5-dimethoxyphenyl)amino)-quinoxalin-2-yl)-1H-pyrazol-1-yl)piperidine-1-carbonyl)-1-(4-(dimethyl-amino)but-2-enoyl)-azetidine-3-carbonitrile] | 0.044 µM | 0.015 µM | 0.01822 min⁻¹ | 0.149 µM |
| COc1cc(Nc2ccc3ncc(-c4cnn(C5CCN(C(=O)C6(F)CN(C(=O)/C=C/CN(C)C)C6)CC5)c4C)nc3c2)cc(OC)c1 [Example 17, (E)-1-(3-(4-(4-(7-((3,5-dimethoxyphenyl)amino)-quinoxalin-2-yl)-5-methyl-1H-pyrazol-1-yl)piperi-dine-1-carbonyl)-3-fluoroazetidin-1-yl)-4-(dimethylamino)but-2-en-1-one] | 0.102 µM | 0.118 µM | 0.00842 min⁻¹ | 0.423 µM |
| COc1cc(Nc2ccc3ncc(-c4cnc(N5CCN(C(=O)C6(F)CN(C(=O)/C=C/CN(C)C)C6)CC5)cc4C)nc3c2)cc(OC)c1 [Example 14, (E)-1-(3-(4-(5-(7-((3,5-dimethoxyphenyl)amino)-quinoxalin-2-yl)-4-methylpyridin-2-yl)-piperazine-1-carbonyl)-3-fluoroazetidin-1-yl)-4-(dimethylamino)but-2-en-1-one] | 4.14 µM | 0.666 µM | 0.00326 min⁻¹ | 1.94 µM |
| COc1cc(Nc2ccc3ncc(-c4cn(C5CCN(C(=O)C6(F)CN(C(=O)/C=C/CN(C)C)C6)CC5)nc4C)nc3c2)cc(OC)c1 [Example 22, (E)-1-(3-(4-(4-(7-((3,5-dimethoxyphenyl)amino)-quinoxalin-2-yl)-3-methyl-1H-pyrazol-1-yl)-piperidine-1-carbonyl)-3-fluoroazetidin-1-yl)-4-(dimethylamino)but-2-en-1-one] | 0.131 µM | 0.084 µM | 0.00673 min⁻¹ | 0.898 µM |
| C=CC(=O)N1CC(O)(C(=O)N2CCC(n3cc(-c4cnc5ccc(N(C)c6cc(OC)cc(OC)c6)cc5n4)cn3)CC2)C1 [Example 27, 1-(3-(4-(4-(7-((3,5-dimethoxyphenyl)(methyl)amino)quinoxalin-2-yl)-1H-pyrazol-1-yl)piperidine-1-carbonyl)-3-hydroxyazetidin-1-yl)prop-2-en-1-one] | 0.013 µM | 0.012 µM | 0.00264 min⁻¹ | 0.128 µM |
| C=CC(=O)N1CC[C@@H](C(=O)N2CCC(n3cc(-c4cnc5ccc(Nc6cc(OC)cc(OC)c6)cc5n4)cn3)CC2)C1 [Example 2, (R)-1-(3-(4-(4-(7-((3,5-dimethoxyphenyl)amino)-quinoxalin-2-yl)-1H-pyrazol-1-yl)piperidine-1-carbonyl)pyrrolidin-1-yl)-prop-2-en-1-one] | 0.024 µM | 0.011 µM | 0.00038 min⁻¹ | 0.852 µM |
